Experimental data published in patent publication US5763404A, “Methods for using LHRH antagonists with low histamine release” (priority 1995, dated 1998).
Starred links: 1 amine or outer side, 2 acyl side, 3 side chain; linkers in the order of their positions; H or OH if unused. Non-standard residues stand in square brackets, D forms with d. Residues, ends and D or L forms follow the SMILES beside them. *: point of attachment. dAla(cis-4-NHCOPyz-cHex) = N[C@H](C[C@H]1CC[C@@H](NC(=O)c2cnccn2)CC1)C(=O)O; X2 = O=C(N[C@H]1CC[C@@H](C[C@H](N[*:1])C(=O)[*:2])CC1)c1cnccn1; X3 = O=C(N[C@H]1CC[C@H](C[C@@H](N[*:1])C(=O)[*:2])CC1)c1cnccn1; dPhe(3,4-Cl2) = N[C@H](Cc1ccc(Cl)c(Cl)c1)C(=O)O; dPhe(4-Cl) = N[C@H](Cc1ccc(Cl)cc1)C(=O)O; Pyrimidin2yl(4,6-Me2) = Cc1cc(C)nc(*)n1; X10 = O=C([C@@H](Cc1cnccn1)N[*:1])[*:2]; d2Nal = N[C@H](Cc1ccc2ccccc2c1)C(=O)O; Picolinoyl(6-Me) = Cc1cccc(C(=O)*)n1; Lys(iPr) = CC(C)NCCCC[C@H](N)C(=O)O; Orn(iPr) = CC(C)NCCC[C@H](N)C(=O)O; Pyrazinecarbonyl = O=C(c1cnccn1)*; aIle = CC[C@@H](C)[C@H](N)C(=O)O; 3Pal = N[C@@H](Cc1cccnc1)C(=O)O; d3Pal = N[C@H](Cc1cccnc1)C(=O)O; Nicotinoyl = O=C(c1cccnc1)*; Picolinoyl = O=C(c1ccccn1)*; dOrn = NCCC[C@@H](N)C(=O)O; X12 = O=C(c1ccncn1)*

tested on: anaesthesized rats; assay: wheal test, intradermal injection; assay type: in vivo, rat; parameters: Wheal (wheal response): unit not given here; settings: 10 ug peptide intradermally
Procedure: The antiovulatory activity, AOA, in rats was determined as described by Humphries et al. (12). Antiovulation assays were performed by counting, on estrus, the number of ova shed by 4-day cycling rats after a single sc injection of the LH-RH analogue in corn oil was administered between 12 and 12:30 p.m. on […]. The control rats received 0.3 mL of the vehicle. The wheal test was performed by intradermally injecting 10 ug of peptide in 100 ul of saline into anaesthesized rats, measuring the ideally circular wheal response and calculating the area. The in vitro histamine release test was done as described by Karten et al. (4). A suspension of rat mast cells was added to increasing concentrations of peptide and the mixture was incubated for a few minutes followed by centrifugation to collect the histamine in the supernatant. A PIPES (piperazine-N,N'-bis[2-ethanesulfonic acid]) medium buffered at pH 7.4 containing NaCl 119 mM, KCl 5 mM, PIPES 25 mM, NaOH 40 mM, glucose 5.6 mM, CaCl2 1 mM, and 0.1% bovine serum albumin was used. This was designated as PIPES AC. Peptides were dissolved in double distilled H2 O at a concentration of 2 mg/ml and stored at -20° C. They were thawed just prior to testing, diluted in PIPES AC and prewarmed for five minutes at 37° C. Peptides studied were stable to heating at 56° C. for two hours, and to freezing and thawing.

Compared with CC(=O)N[C@H](Cc1ccc2ccccc2c1)C(=O)N[C@H](Cc1ccc(Cl)cc1)C(=O)N[C@H](Cc1cccnc1)C(=O)N[C@@H](CO)C(=O)N[C@@H](CCCCNC(=O)c1cccnc1)C(=O)N[C@H](C[C@H]1CC[C@H](NC(=O)c2cnccn2)CC1)C(=O)N[C@@H](CC(C)C)C(=O)N[C@@H](CCCCNC(C)C)C(=O)N1CCC[C@H]1C(=O)N[C@H](C)C(N)=O [compound 25805] (Ac-[d2Nal][dPhe(4-Cl)][d3Pal]SK(Nicotinoyl)[X3]L[Lys(iPr)]P[dA]-NH2), CC(=O)N[C@H](Cc1ccc2ccccc2c1)C(=O)N[C@H](Cc1ccc(Cl)cc1)C(=O)N[C@H](Cc1cccnc1)C(=O)N[C@@H](CO)C(=O)N[C@@H](C[C@H]1CC[C@@H](NC(=O)c2cnccn2)CC1)C(=O)N[C@H](C[C@H]1CC[C@@H](NC(=O)c2cnccn2)CC1)C(=O)N[C@@H](CC(C)C)C(=O)N[C@@H](CCCCNC(C)C)C(=O)N1CCC[C@H]1C(=O)N[C@H](C)C(N)=O [compound 26326] (Ac-[d2Nal][dPhe(4-Cl)][d3Pal]S[X2][dAla(cis-4-NHCOPyz-cHex)]L[Lys(iPr)]P[dA]-NH2) is lower in “Wheal Area” value: 129.6 ± 8.8 mm^2 /10 μg for the first, 115.5 ± 2.4 mm^2 /10 μg for the second.

Going from CC(=O)N[C@H](Cc1ccc2ccccc2c1)C(=O)N[C@H](Cc1ccc(Cl)cc1)C(=O)N[C@H](Cc1cccnc1)C(=O)N[C@@H](CO)C(=O)N[C@@H](Cc1ccc(O)cc1)C(=O)N[C@H](CCCCNC(=O)c1ccccn1)C(=O)N[C@@H](CC(C)C)C(=O)N[C@@H](CCCNC(C)C)C(=O)N1CCC[C@H]1C(=O)N[C@H](C)C(N)=O [compound 26363] (Ac-[d2Nal][dPhe(4-Cl)][d3Pal]SY[dK](Picolinoyl)L[Orn(iPr)]P[dA]-NH2) to CC(=O)N[C@H](Cc1ccc2ccccc2c1)C(=O)N[C@H](Cc1ccc(Cl)cc1)C(=O)N[C@H](Cc1cnccn1)C(=O)N[C@@H](CO)C(=O)N[C@@H](CCCCNC(=O)c1ccccn1)C(=O)N[C@H](CCCCNC(=O)c1ccccn1)C(=O)N[C@@H](CC(C)C)C(=O)N[C@@H](CCCNC(C)C)C(=O)N1CCC[C@H]1C(=O)N[C@H](C)C(N)=O [compound 26119] (Ac-[d2Nal][dPhe(4-Cl)][X10]SK(Picolinoyl)[dK](Picolinoyl)L[Orn(iPr)]P[dA]-NH2), the “Wheal Area” value falls from 113.2 ± 5.5 mm^2 /10 μg to 103.9 ± 3.4 mm^2 /10 μg.

CC(=O)N[C@H](Cc1ccc2ccccc2c1)C(=O)N[C@H](Cc1ccc(Cl)cc1)C(=O)N[C@H](Cc1cccnc1)C(=O)N[C@@H](CO)C(=O)N[C@@H](Cc1ccc(O)cc1)C(=O)N[C@H](C[C@H]1CC[C@@H](NC(=O)c2cnccn2)CC1)C(=O)N[C@@H](CC(C)C)C(=O)N[C@@H](CCCCNC(C)C)C(=O)N1CCC[C@H]1C(=O)N[C@H](CO)C(N)=O [compound 26365] (Ac-[d2Nal][dPhe(4-Cl)][d3Pal]SY[dAla(cis-4-NHCOPyz-cHex)]L[Lys(iPr)]P[dS]-NH2) and CC(=O)N[C@H](Cc1ccc2ccccc2c1)C(=O)N[C@H](Cc1ccc(Cl)cc1)C(=O)N[C@H](Cc1cccnc1)C(=O)N[C@@H](CO)C(=O)N[C@@H](CCCCNC(=O)c1ccncn1)C(=O)N[C@H](CCCCNC(=O)c1ccncn1)C(=O)N[C@@H](CC(C)C)C(=O)N[C@@H](CCCCNC(C)C)C(=O)N1CCC[C@H]1C(=O)N[C@H](C)C(N)=O [compound 26322] (Ac-[d2Nal][dPhe(4-Cl)][d3Pal]SK(X12)[dK](X12)L[Lys(iPr)]P[dA]-NH2) are within error of each other in “Wheal Area” value: 129.4 ± 3.3 mm^2 /10 μg for the first, 130.2 ± 2.5 mm^2 /10 μg for the second.

Compared with CC(=O)N[C@H](Cc1ccc2ccccc2c1)C(=O)N[C@H](Cc1ccc(Cl)c(Cl)c1)C(=O)N[C@H](Cc1cccnc1)C(=O)N[C@@H](CO)C(=O)N[C@@H](CCCCNC(=O)c1ccccn1)C(=O)N[C@H](CCCCNC(=O)c1ccccn1)C(=O)N[C@@H](CC(C)C)C(=O)N[C@@H](CCCCNC(C)C)C(=O)N1CCC[C@H]1C(=O)N[C@H](C)C(N)=O [compound 25807] (Ac-[d2Nal][dPhe(3,4-Cl2)][d3Pal]SK(Picolinoyl)[dK](Picolinoyl)L[Lys(iPr)]P[dA]-NH2), CC(=O)N[C@H](Cc1ccc2ccccc2c1)C(=O)N[C@H](Cc1ccc(Cl)cc1)C(=O)N[C@H](Cc1cccnc1)C(=O)N[C@@H](CO)C(=O)N[C@@H](CCCCNC(=O)c1ccccn1)C(=O)N[C@H](CCCCNC(=O)c1ccccn1)C(=O)N[C@H](C(=O)N[C@@H](CCCCNC(C)C)C(=O)N1CCC[C@H]1C(=O)N[C@H](C)C(N)=O)C(C)C [compound 25934] (Ac-[d2Nal][dPhe(4-Cl)][d3Pal]SK(Picolinoyl)[dK](Picolinoyl)V[Lys(iPr)]P[dA]-NH2) is lower in “Wheal Area” value: 139.8 ± 7.1 mm^2 /10 μg for the first, 97.9 ± 2.9 mm^2 /10 μg for the second.

Compared with CC[C@@H](C)[C@H](NC(=O)[C@@H](CCCCNC(=O)c1ccccn1)NC(=O)[C@H](CCCCNC(=O)c1ccccn1)NC(=O)[C@H](CO)NC(=O)[C@@H](Cc1cccnc1)NC(=O)[C@@H](Cc1ccc(Cl)cc1)NC(=O)[C@@H](Cc1ccc2ccccc2c1)NC(C)=O)C(=O)N[C@@H](CCCCNC(C)C)C(=O)N1CCC[C@H]1C(=O)N[C@H](C)C(N)=O [compound 25936] (Ac-[d2Nal][dPhe(4-Cl)][d3Pal]SK(Picolinoyl)[dK](Picolinoyl)[aIle][Lys(iPr)]P[dA]-NH2), CC(=O)N[C@H](Cc1ccc2ccccc2c1)C(=O)N[C@H](Cc1ccc(Cl)cc1)C(=O)N[C@H](Cc1cccnc1)C(=O)N[C@@H](CO)C(=O)N[C@@H](CCCCNC(=O)c1cccc(C)n1)C(=O)N[C@H](CCCCNC(=O)c1cccc(C)n1)C(=O)N[C@@H](CC(C)C)C(=O)N[C@@H](CCCCNC(C)C)C(=O)N1CCC[C@H]1C(=O)N[C@H](C)C(N)=O [compound 25808] (Ac-[d2Nal][dPhe(4-Cl)][d3Pal]SK(Picolinoyl(6-Me))[dK](Picolinoyl(6-Me))L[Lys(iPr)]P[dA]-NH2) is higher in “Wheal Area” value: 97.9 ± 2.9 mm^2 /10 μg for the first, 106.2 ± 4.3 mm^2 /10 μg for the second.

same assay, conditions: Table I; 10 ug peptide intradermally

Compared with CC(=O)N[C@H](Cc1ccc2ccccc2c1)C(=O)N[C@H](Cc1ccc(Cl)cc1)C(=O)N[C@H](Cc1cccnc1)C(=O)N[C@@H](CO)C(=O)N[C@@H](CCCCNC(=O)c1cnccn1)C(=O)N[C@H](CCCCNC(=O)c1cnccn1)C(=O)N[C@@H](CC(C)C)C(=O)N[C@@H](CCCCNC(C)C)C(=O)N1CCC[C@H]1C(=O)N[C@H](C)C(N)=O [compound 25650] (Ac-[d2Nal][dPhe(4-Cl)][d3Pal]SK(Pyrazinecarbonyl)[dK](Pyrazinecarbonyl)L[Lys(iPr)]P[dA]-NH2), CC(=O)N[C@H](Cc1ccc2ccccc2c1)C(=O)N[C@H](Cc1ccc(Cl)cc1)C(=O)N[C@H](Cc1cccnc1)C(=O)N[C@@H](CO)C(=O)N[C@@H](CCCCNC(=O)c1ccccn1)C(=O)N[C@H](CCCCNC(=O)c1cccnc1)C(=O)N[C@@H](CC(C)C)C(=O)N[C@@H](CCCCNC(C)C)C(=O)N1CCC[C@H]1C(=O)N[C@H](C)C(N)=O [compound 25510] (Ac-[d2Nal][dPhe(4-Cl)][d3Pal]SK(Picolinoyl)[dK](Nicotinoyl)L[Lys(iPr)]P[dA]-NH2) is higher in Wheal: 110.2 mm^2 /10 for the first, 116 ± 3.3 mm^2 /10 for the second.

Going from CC(=O)N[C@H](Cc1ccc2ccccc2c1)C(=O)N[C@H](Cc1ccc(Cl)cc1)C(=O)N[C@H](Cc1cccnc1)C(=O)N[C@@H](CO)C(=O)N[C@@H](Cc1ccc(O)cc1)C(=O)N[C@H](CCCCNC(=O)c1cccnc1)C(=O)N[C@@H](CC(C)C)C(=O)N[C@@H](CCCCNC(C)C)C(=O)N1CCC[C@H]1C(=O)N[C@H](C)C(N)=O [compound 24315] (Ac-[d2Nal][dPhe(4-Cl)][d3Pal]SY[dK](Nicotinoyl)L[Lys(iPr)]P[dA]-NH2) to CC(=O)N[C@H](Cc1ccc2ccccc2c1)C(=O)N[C@H](Cc1ccc(Cl)cc1)C(=O)N[C@H](Cc1cccnc1)C(=O)N[C@@H](CO)C(=O)N[C@@H](Cc1cccnc1)C(=O)N[C@H](CCCCNC(=O)c1cccnc1)C(=O)N[C@@H](CC(C)C)C(=O)N[C@@H](CCCNC(C)C)C(=O)N1CCC[C@H]1C(=O)N[C@H](C)C(N)=O [compound 25384] (Ac-[d2Nal][dPhe(4-Cl)][d3Pal]S[3Pal][dK](Nicotinoyl)L[Orn(iPr)]P[dA]-NH2), the Wheal rises from 79.0 ± 9.2 mm^2 /10 to 139.9 mm^2 /10.

Compared with CC(=O)N[C@H](Cc1ccc2ccccc2c1)C(=O)N[C@H](Cc1ccc(Cl)cc1)C(=O)N[C@H](Cc1cccnc1)C(=O)N[C@@H](CO)C(=O)N[C@@H](CCCCNC(=O)c1cccnc1)C(=O)N[C@H](CCCNc1nc(C)cc(C)n1)C(=O)N[C@@H](CC(C)C)C(=O)N[C@@H](CCCCNC(C)C)C(=O)N1CCC[C@H]1C(=O)N[C@H](C)C(N)=O [compound 25334] (Ac-[d2Nal][dPhe(4-Cl)][d3Pal]SK(Nicotinoyl)[dOrn](Pyrimidin2yl(4,6-Me2))L[Lys(iPr)]P[dA]-NH2), CC(=O)N[C@H](Cc1ccc2ccccc2c1)C(=O)N[C@H](Cc1ccc(Cl)cc1)C(=O)N[C@H](Cc1cccnc1)C(=O)N[C@@H](CO)C(=O)N[C@@H](Cc1c[nH]cn1)C(=O)N[C@H](CCCCNC(=O)c1cccnc1)C(=O)N[C@@H](CC(C)C)C(=O)N[C@@H](CCCCNC(=O)c1cccnc1)C(=O)N1CCC[C@H]1C(=O)N[C@H](C)C(N)=O [compound 24745] (Ac-[d2Nal][dPhe(4-Cl)][d3Pal]SH[dK](Nicotinoyl)LK(Nicotinoyl)P[dA]-NH2) is lower in Wheal: 165.2 mm^2 /10 for the first, 136.3 ± 6.8 mm^2 /10 for the second.

same assay, conditions: Table XIV and text, unit not given

CC(=O)N[C@H](Cc1ccc2ccccc2c1)C(=O)N[C@H](Cc1ccc(Cl)cc1)C(=O)N[C@H](Cc1cccnc1)C(=O)N[C@@H](CO)C(=O)N[C@@H](C[C@H]1CC[C@@H](NC(=O)c2cnccn2)CC1)C(=O)N[C@H](C[C@H]1CC[C@@H](NC(=O)c2cnccn2)CC1)C(=O)N[C@@H](CC(C)C)C(=O)N[C@@H](CCCCNC(C)C)C(=O)N1CCC[C@H]1C(=O)N[C@H](C)C(N)=O [compound 26326] (Ac-[d2Nal][dPhe(4-Cl)][d3Pal]S[X2][dAla(cis-4-NHCOPyz-cHex)]L[Lys(iPr)]P[dA]-NH2) was tested, and the “Wheal (wheal response)” value was 115.5 ± 2.4.
